Assay results taken from patent US20160237059A1, “HETEROCYCLIC SUBSTITUTED TRIFLUOROMETHYL PYRIMIDINONES AND THEIR USE” (BAYER PHARMA AKTIENGESELLSCHAFT, priority 2013, published 2016).

What was measured:
Assay type in all cases: cell-based
murine CCR2 [1] = target: T1, murine CCR2 (Mus musculus, UniProt P51683); assay: Functional β-arrestin recruiting test with murine MCP-1 (B-2b); conditions: U2OS β-arrestin cell line transfected with murine CCR2; agonist murine MCP-1; in some cases means of several determinations
T1 construct: host or cells: U2OS β-arrestin cell line
Procedure, shortened: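 In a PathHunter β-galactosidase complementation assay, U2OS cells expressing murine CCR2 were preincubated 10 min with compound (10-point, 1:3.16 dilutions), then challenged with murine MCP-1 at its predetermined EC50 for 90 min at 37 °C. Luminescence was read after 60 min, and IC50 was fitted with a 4-parameter Hill function.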

human CCR2 = target: T2, human CCR2 (Homo sapiens, UniProt P41597); assay: Functional Ca2+ release test (B-1); conditions: Chem-1 cell line transfected with human CCR2; 50% inhibition of the MCP-1 effect, MCP-1 at EC50 (about 5 nM); in some cases means of several determinations
T2 construct: host or cells: Chem-1 cell line
T2 sequence (P41597 1-360 isoform P41597-2): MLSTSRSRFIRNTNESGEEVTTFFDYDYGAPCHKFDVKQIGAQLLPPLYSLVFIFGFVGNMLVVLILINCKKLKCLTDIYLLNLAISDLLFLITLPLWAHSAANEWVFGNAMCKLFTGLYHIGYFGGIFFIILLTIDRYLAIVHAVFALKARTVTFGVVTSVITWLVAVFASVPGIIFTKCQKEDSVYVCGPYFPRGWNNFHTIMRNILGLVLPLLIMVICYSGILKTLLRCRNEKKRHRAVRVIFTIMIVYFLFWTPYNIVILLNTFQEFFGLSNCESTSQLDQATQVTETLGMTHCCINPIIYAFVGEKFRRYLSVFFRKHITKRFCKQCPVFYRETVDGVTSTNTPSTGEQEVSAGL
Procedure, shortened: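 Chem-1 cells expressing human CCR2, loaded with Fluo-4 for 60 min at 37° C, were preincubated 10 min with compound (10-point, 1:3.16 dilutions), then stimulated with MCP-1 at its predetermined EC50 (about 5 nM). Ca2+ release was monitored for 120 s. IC50 came from a 4-parameter Hill fit.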

murine CCR2 [2] = target: T1, murine CCR2; assay: Functional β-arrestin recruiting test with human MCP-1 (B-2a); conditions: U2OS β-arrestin cell line transfected with murine CCR2; agonist human MCP-1 at EC50 (about 3 nM); in some cases means of several determinations
Procedure, shortened: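 Antagonist mode in U2OS cells expressing murine CCR2, read by PathHunter β-galactosidase complementation luminescence. Cells pre-incubated 10 min with 10-point compound dilutions (1:3.16 steps), then stimulated with human MCP-1 at its EC50 (usually about 3 nM) for 90 min at 37° C.; IC50 from 4-parameter logistic fit.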

T1 sequence (P51683 whole entry): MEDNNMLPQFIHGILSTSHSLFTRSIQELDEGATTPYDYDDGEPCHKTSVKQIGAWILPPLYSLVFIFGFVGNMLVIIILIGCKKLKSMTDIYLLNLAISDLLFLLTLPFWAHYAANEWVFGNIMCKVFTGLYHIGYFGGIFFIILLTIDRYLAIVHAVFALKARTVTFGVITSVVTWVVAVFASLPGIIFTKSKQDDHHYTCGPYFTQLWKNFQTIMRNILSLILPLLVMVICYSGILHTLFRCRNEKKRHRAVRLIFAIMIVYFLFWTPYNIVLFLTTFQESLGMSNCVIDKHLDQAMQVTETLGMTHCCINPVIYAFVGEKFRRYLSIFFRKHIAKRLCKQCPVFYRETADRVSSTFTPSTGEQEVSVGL

Row | IC50 (murine CCR2 [1]) | IC50 (human CCR2) | IC50 (murine CCR2 [2]) | Structure (SMILES)
1 | 1040 nM | 4.5 nM | 88 nM | O=c1[nH]c(-c2ccccn2)nc(C(F)(F)F)c1Oc1ccc(F)c(Cl)c1 [Example 2, 5-(3-chloro-4-fluorophenoxy)-2-(pyridin-2-yl)-6-(trifluoromethyl)pyrimidin-4(3H)-one]
2 | 27 nM | 0.8 nM | 2.7 nM | Nc1cnn(-c2nc(C(F)(F)F)c(Oc3ccc(Cl)c(C(F)(F)F)c3)c(=O)[nH]2)c1 [Example 108, 2-(4-amino-1H-pyrazol-1-yl)-5-[4-chloro-3-(trifluoromethyl)phenoxy]-6-(trifluoromethyl)pyrimidin-4(3H)-one]
3 | 1080 nM | 3 nM | 57 nM | O=c1[nH]c(-n2cccn2)nc(C(F)(F)F)c1Cc1ccc(Cl)c(C(F)(F)F)c1 [Example 71, 5-[4-chloro-3-(trifluoromethyl)benzyl]-2-(1H-pyrazol-1-yl)-6-(trifluoromethyl)pyrimidin-4(3H)-one]
4 | 16 nM | 0.4 nM | 8.3 nM | Nc1ccc(-c2nc(C(F)(F)F)c(Oc3ccc(Cl)c(C(F)(F)F)c3)c(=O)[nH]2)nc1 [Example 113, 2-(5-Aminopyridin-2-yl)-5-[4-chloro-3-(trifluoromethyl)phenoxy]-6-(trifluoromethyl)pyrimidin-4(3H)-one]
5 | 553 nM | 4.7 nM | 86 nM | Nc1ccnc(-c2nc(C(F)(F)F)c(Oc3ccc(Cl)c(C(F)(F)F)c3)c(=O)[nH]2)c1 [Example 45, 2-(4-aminopyridin-2-yl)-5-[4-chloro-3-(trifluoromethyl)phenoxy]-6-(trifluoromethyl)pyrimidin-4(3H)-one]
6 | 435 nM | 2.2 nM | 120 nM | Cc1ccc(-c2nc(C(F)(F)F)c(Oc3ccc(Cl)c(Cl)c3)c(=O)[nH]2)nc1 [Example 7, 5-(3,4-dichlorophenoxy)-2-(5-methylpyridin-2-yl)-6-(trifluoromethyl)pyrimidin-4(3H)-one]
7 | 308 nM | 20 nM | 79 nM | Cc1nc(-c2nc(C(F)(F)F)c(Oc3ccc(Cl)c(Cl)c3)c(=O)[nH]2)no1 [Example 83]
8 | 37 nM | 0.4 nM | 12 nM | O=c1[nH]c(-n2cccn2)nc(C(F)(F)F)c1Oc1ccc(Cl)c(C(F)(F)F)c1 [Example 73, 5-[4-chloro-3-(trifluoromethyl)phenoxy]-2-(1H-pyrazol-1-yl)-6-(trifluoromethyl)pyrimidin-4(3H)-one]
9 | 102 nM | 1.3 nM | 29 nM | O=c1[nH]c(-c2n[nH]cc2Cl)nc(C(F)(F)F)c1Cc1ccc(Cl)c(Cl)c1 [Example 75, 2-(4-chloro-1H-pyrazol-3-yl)-5-(3,4-dichlorobenzyl)-6-(trifluoromethyl)pyrimidin-4(3H)-one]
10 | 50 nM | 3.7 nM | 16 nM | O=c1[nH]c(-c2ncon2)nc(C(F)(F)F)c1Oc1ccc(Cl)c(C(F)(F)F)c1 [Example 78, 5-[4-Chloro-3-(trifluoromethyl)phenoxy]-2-(1,2,4-oxadiazol-3-yl)-6-(trifluoromethyl)pyrimidin-4(3H)-one]
11 | 95 nM | 1 nM | 3.6 nM | Nc1cnn(-c2nc(C(F)(F)F)c(Oc3ccc(Cl)c(Cl)c3)c(=O)[nH]2)c1 [Example 47, 2-(4-Amino-1H-pyrazol-1-yl)-5-(3,4-dichlorophenoxy)-6-(trifluoromethyl)pyrimidin-4(3H)-one]
12 | 458 nM | 2.8 nM | 51 nM | Cc1cc(-c2nc(C(F)(F)F)c(Oc3ccc(Cl)c(Cl)c3)c(=O)[nH]2)nn1C [Example 54, 5-(3,4-dichlorophenoxy)-2-(1,5-dimethyl-1H-pyrazol-3-yl)-6-(trifluoromethyl)pyrimidin-4(3H)-one]
13 | 191 nM | 1.4 nM | 43 nM | O=c1[nH]c(-c2ncccc2F)nc(C(F)(F)F)c1Cc1ccc(Cl)c(Cl)c1 [Example 17, 5-(3,4-dichlorobenzyl)-2-(3-fluoropyridin-2-yl)-6-(trifluoromethyl)pyrimidin-4(3H)-one]
14 | 44 nM | 0.8 nM | 12 nM | COc1cccnc1-c1nc(C(F)(F)F)c(Oc2ccc(Cl)c(C(F)(F)F)c2)c(=O)[nH]1 [Example 40, 5-[4-chloro-3-(trifluoromethyl)phenoxy]-2-(3-methoxypyridin-2-yl)-6-(trifluoromethyl)pyrimidin-4(3H)-one]
15 | 18 nM | 2 nM | 6.3 nM | O=c1[nH]c(-c2n[nH]cc2Cl)nc(C(F)(F)F)c1Oc1ccc(Cl)c(C(F)(F)F)c1 [Example 77, 2-(4-chloro-1H-pyrazol-3-yl)-5-[4-chloro-3-(trifluoromethyl)phenoxy]-6-(trifluoromethyl)pyrimidin-4(3H)-one]
16 | 449 nM | 27 nM | 77 nM | O=c1[nH]c(Cc2ccno2)nc(C(F)(F)F)c1Oc1ccc(Cl)c(Cl)c1 [Example 95, 5-(3,4-dichlorophenoxy)-2-(1,2-oxazol-5-ylmethyl)-6-(trifluoromethyl)pyrimidin-4(3H)-one]
17 | 439 nM | 1.3 nM | 85 nM | Cn1cnc(-c2nc(C(F)(F)F)c(Cc3ccc(Cl)c(Cl)c3)c(=O)[nH]2)c1 [Example 52, 5-(3,4-dichlorobenzyl)-2-(1-methyl-1H-imidazol-4-yl)-6-(trifluoromethyl)pyrimidin-4(3H)-one]
18 | – | 41 nM | 730 nM | Cn1cc(Nc2nc(C(F)(F)F)c(Oc3ccc(Cl)c(Cl)c3)c(=O)[nH]2)cn1 [Example 110, 5-(3,4-dichlorophenoxy)-2-[(1-methyl-1H-pyrazol-4-yl)amino]-6-(trifluoromethyl)pyrimidin-4(3H)-one]
19 | – | 92 nM | 2600 nM | COc1cc(-c2nc(C(F)(F)F)c(Cc3ccc(Cl)c(Cl)c3)c(=O)[nH]2)ccn1 [Example 29, 5-(3,4-dichlorobenzyl)-2-(2-methoxypyridin-4-yl)-6-(trifluoromethyl)pyrimidin-4(3H)-one]
20 | – | 18 nM | 6100 nM | O=C(O)c1cc(O)n(-c2nc(C(F)(F)F)c(Cc3ccc(Cl)c(Cl)c3)c(=O)[nH]2)n1 [Example 88, 1-[5-(3,4-Dichlorobenzyl)-6-oxo-4-(trifluoromethyl)-1,6-dihydropyrimidin-2-yl]-5-hydroxy-H-pyrazole-3-carboxylic acid]
21 | – | 30 nM | 160 nM | O=c1[nH]c(Cc2ccno2)nc(C(F)(F)F)c1Cc1ccc(Cl)c(Cl)c1 [Example 96, 5-(3,4-dichlorobenzylylmethyl)-6-(trifluoromethyl)pyrimidin-4(3H)-one]
22 | – | 320 nM | 6500 nM | Nc1nc[nH]c1-c1nc(C(F)(F)F)c(Oc2ccc(Cl)c(Cl)c2)c(=O)[nH]1 [Example 64, 2-(4-amino-1H-imidazol-5-yl)-5-(3,4-dichlorophenoxy)-6-(trifluoromethyl)pyrimidin-4(3H)-one]
23 | – | 13 nM | 180 nM | Cc1cccc(-c2nc(C(F)(F)F)c(Oc3ccc(Cl)c(Cl)c3)c(=O)[nH]2)n1 [Example 9, 5-(3,4-dichlorophenoxy)-2-(6-methylpyridin-2-yl)-6-(trifluoromethyl)pyrimidin-4(3H)-one]
24 | – | 0.7 nM | 19 nM | O=c1[nH]c(-c2cc[nH]n2)nc(C(F)(F)F)c1Cc1ccc(Cl)c(C(F)(F)F)c1 [Example 72, 5-[4-chloro-3-(trifluoromethyl)benzyl]-2-(1H-pyrazol-3-yl)-6-(trifluoromethyl)pyrimidin-4(3H)-one]
25 | – | 3.9 nM | 180 nM | O=c1[nH]c(-c2ccc(Cl)cn2)nc(C(F)(F)F)c1Oc1ccc(Cl)c(Cl)c1 [Example 8, 2-(5-chloropyridin-2-yl)-5-(3,4-dichlorophenoxy)-6-(trifluoromethyl)pyrimidin-4(3H)-one]
26 | – | 15 nM | 140 nM | O=c1[nH]c(-c2cccc(Cl)n2)nc(C(F)(F)F)c1Oc1ccc(Cl)c(Cl)c1 [Example 10, 2-(6-chloropyridin-2-yl)-5-(3,4-dichlorophenoxy)-6-(trifluoromethyl)pyrimidin-4(3H)-one]
27 | – | 38 nM | 900 nM | Cn1nccc1-c1nc(C(F)(F)F)c(Oc2ccc(Cl)c(Cl)c2)c(=O)[nH]1 [Example 56, 5-(3,4-dichlorophenoxy)-2-(1-methyl-1H-pyrazol-5-yl)-6-(trifluoromethyl)pyrimidin-4(3H)-one]
